Test results taken from patent US11566007B2, “Ras inhibitors” (Revolution Medicines, Inc., priority 2019, dated 2023).
Like-named read-outs stand apart in the source and are kept apart here.

Experiments:
K-Ras G12C = K-Ras G12C (Homo sapiens (Human), UniProt P01116+P62937, G12C); assay: Ras-Raf (BRAF RBD) disruption / FRET / MOA assay, KRAS G12C; assay type: biochemical; conditions: KRAS G12C, Ras-Raf disruption/FRET/MOA assay
Summary of the method: (§1)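 Ternary complex formation (Ras–compound–cyclophilin A) displacing BRAF RBD, monitored by TR-FRET. Three hours at 25° C with compound (top 30 μM final), then 1.5 h with the labelled antibodies. Lower ratio than DMSO indicates disruption; IC50 reported.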

NRAS Q61R = NRAS Q61R (Homo sapiens (Human), UniProt P01111+P62937, Q61R); assay: Ras-Raf (BRAF RBD) disruption / FRET / MOA assay, NRAS Q61R; assay type: biochemical; conditions: NRAS Q61R; Ras-Raf disruption/FRET/MOA assay; read-out: IC50* NRAS Q61R FRET data
Sequence of NRAS Q61R (P01111 whole entry Q61R): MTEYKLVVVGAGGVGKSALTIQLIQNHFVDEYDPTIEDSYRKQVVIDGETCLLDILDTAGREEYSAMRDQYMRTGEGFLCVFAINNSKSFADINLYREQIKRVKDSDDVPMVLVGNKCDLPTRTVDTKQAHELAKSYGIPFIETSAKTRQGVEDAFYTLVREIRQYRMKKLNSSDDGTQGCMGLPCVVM
Sequence of NRAS Q61R (P62937 whole entry): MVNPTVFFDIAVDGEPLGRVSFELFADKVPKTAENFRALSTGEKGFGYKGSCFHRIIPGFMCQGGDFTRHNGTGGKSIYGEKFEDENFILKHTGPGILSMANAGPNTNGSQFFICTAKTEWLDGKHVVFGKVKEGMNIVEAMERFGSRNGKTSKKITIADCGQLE
Summary of the method: (§2)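 Compounds were tested as a 10-point 3-fold dilution series from 30 μM final for their ability to drive ternary complex formation between nucleotide-loaded Ras and cyclophilin A, displacing the BRAF RBD. After 3 h at 25° C., anti-His Eu-W1024 (10 nM) and anti-GST allophycocyanin (50 nM) were added for 1.5 h. A TR-FRET ratio decrease versus DMSO gave IC50.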

NCI-H358 (K-Ras G12C) = assay: CellTiter-Glo cell viability assay, NCI-H358; assay type: cell-based, human; conditions: Homo sapiens, NCI-H358, 120 h, class symbols
Summary of the method: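 Viability measured by CellTiter-Glo luminescence on day 5 following direct addition of compound to plated cells. Values expressed as percent of mean DMSO signal; curves fitted with a four-parameter logistic model.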

NRAS WT = NRAS WT (Homo sapiens (Human), UniProt P01111+P62937); assay: Ras-Raf (BRAF RBD) disruption / FRET / MOA assay, NRAS WT; assay type: biochemical; conditions: read-out: IC50* NRAS WT FRET data
Sequence of NRAS WT (P01111 whole entry): as the sequence (P01111 whole entry Q61R) above, with R61Q counted along it
Sequence of NRAS WT (P62937 whole entry): as the sequence (P62937 whole entry) above
Summary of the method: as §2

KRAS G12D = KRAS G12D (Homo sapiens (Human), UniProt P01116+P62937, G12D); assay: Ras-Raf (BRAF RBD) disruption / FRET / MOA assay, KRAS G12D; assay type: biochemical; conditions: class symbols
Sequence of KRAS G12D (P01116-2 other isoform, or with tags, fused parts or gaps G12D): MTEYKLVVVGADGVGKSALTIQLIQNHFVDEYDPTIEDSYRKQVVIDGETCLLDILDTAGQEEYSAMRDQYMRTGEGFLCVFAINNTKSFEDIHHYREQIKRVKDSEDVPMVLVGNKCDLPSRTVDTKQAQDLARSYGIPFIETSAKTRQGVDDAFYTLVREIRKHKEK
Sequence of KRAS G12D (P62937 whole entry): as the sequence (P62937 whole entry) above
Summary of the method: as §1

KRAS Q61H = KRAS Q61H (Homo sapiens (Human), UniProt P01116+P62937, Q61H); assay: Ras-Raf (BRAF RBD) disruption / FRET / MOA assay, KRAS Q61H; assay type: biochemical; conditions: Ras-Raf disruption/FRET/MOA assay; class symbols; read-out: KRAS Q61H FRET data IC50
Sequence of KRAS Q61H (P01116-2 other isoform, or with tags, fused parts or gaps Q61H): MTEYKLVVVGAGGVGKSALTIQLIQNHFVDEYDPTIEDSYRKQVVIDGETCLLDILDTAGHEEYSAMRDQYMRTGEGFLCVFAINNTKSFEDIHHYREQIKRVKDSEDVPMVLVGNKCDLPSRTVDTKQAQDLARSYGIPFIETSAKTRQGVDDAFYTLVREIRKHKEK
Sequence of KRAS Q61H (P62937 whole entry): as the sequence (P62937 whole entry) above
Summary of the method: as §2

[1] = read-out: IC50* KRAS G12C FRET data
[2] = NCI-H358, 5-day treatment, read-out: Additional H358 Cell Viability assay data (K-Ras G12C, IC50)
[3] = Ras-Raf disruption/FRET/MOA assay, read-out: KRAS G12D FRET data IC50

Sequence of K-Ras G12C (P01116-2 other isoform, or with tags, fused parts or gaps G12C): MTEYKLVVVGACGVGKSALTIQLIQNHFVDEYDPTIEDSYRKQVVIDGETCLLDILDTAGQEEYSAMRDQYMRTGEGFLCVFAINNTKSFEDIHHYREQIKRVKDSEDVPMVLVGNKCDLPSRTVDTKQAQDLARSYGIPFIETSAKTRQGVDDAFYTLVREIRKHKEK
Sequence of K-Ras G12C (P62937 whole entry): as the sequence (P62937 whole entry) above

Row | SMILES | IC50 (K-Ras G12C; [1]) | IC50 (NRAS Q61R) | IC50 (NCI-H358 (K-Ras G12C); [2]) | IC50 (NRAS WT) | IC50 (KRAS G12D; [3]) | IC50 (KRAS Q61H) | IC50 (K-Ras G12C; IC50* KRAS G12C FRET data) | IC50 (NCI-H358 (K-Ras G12C); read-out: Additional H358 Cell Viability assay data (K-Ras G12C, IC50, uM), NCI-H358, 5-day treatment) | IC50 (KRAS G12D; KRAS G12D FRET data IC50, Ras-Raf disruption/FRET/MOA assay)
1 | C=CC(=O)N1CC2(CCN2C(=O)N(C)[C@H](C(=O)N[C@H]2Cc3nc(n(C)n3)-c3ccc4c(c3)c(c(-c3cccnc3[C@H](C)OC)n4CC)CC(C)(C)COC(=O)[C@@H]3CCCN(N3)C2=O)C(C)C)C1 (atropisomer, axis not shown) [Example A612] | 10 to 100 nM | 10 to 100 nM | 0.1 to 1 µM | 10 to 100 nM | 100 to 1000 nM | 10 to 100 nM |  |  | 
2 | CCn1c(-c2cccnc2[C@H](C)OC)c2c3cc(ccc31)N1CCC[C@@H](C[C@H](NC(=O)[C@H](C(C)C)N(C)C(=O)C3(F)CCN(C(=O)C#CC(C)(C)N(C)C)CC3)C(=O)N3CCC[C@H](N3)C(=O)OCC(C)(C)C2)C1 (atropisomer, axis not shown) [Example A615] | 10 to 100 nM | > 10000 nM | < 0.01 µM | > 10000 nM | > 10000 nM | > 10000 nM |  |  | 
3 | C=C(F)C(=O)N1CC2(CCN(C(=O)N(C)[C@H](C(=O)N[C@H]3Cc4nc(cs4)-c4ccc5c(c4)c(c(-c4cccnc4[C@H](C)OC)n5CC)CC(C)(C)COC(=O)[C@@H]4CCCN(N4)C3=O)C(C)C)CC2)C1 (atropisomer, axis not shown) [Example A682] | 10 to 100 nM | 100 to 1000 nM | 0.01 to 0.1 µM | 100 to 1000 nM | 100 to 1000 nM | 10 to 100 nM |  |  | 
4 | C=CC(=O)Nc1ccc(C(=O)N(C)[C@H](C(=O)N[C@H]2Cc3cc(O)cc(c3)-c3ccc4c(c3)c(c(-c3cccnc3[C@H](C)OC)n4CC)CC(C)(C)COC(=O)[C@@H]3CCCN(N3)C2=O)C(C)C)nc1 (atropisomer, axis not shown) [Example A252] | 10 to 100 nM | 1000 to 10000 nM | 0.01 to 0.1 µM | 100 to 1000 nM | 1000 to 10000 nM | 100 to 1000 nM |  |  | 
5 | C=CC(=O)N1CC[C@@]2(CCN(C(=O)N(C)[C@H](C(=O)N[C@H]3Cc4nc(cs4)-c4ccc5c(c4)c(c(-c4cccnc4[C@H](C)OC)n5CC)CC(C)(C)COC(=O)[C@@H]4CCCN(N4)C3=O)C(C)C)C2)C1 (atropisomer, axis not shown) [Example A367] | 10 to 100 nM | 10 to 100 nM | 0.01 to 0.1 µM | 10 to 100 nM | 100 to 1000 nM | 10 to 100 nM |  |  | 
6 | C=CS(=O)(=O)N1CC2(CCN([C@H](C(=O)N[C@H]3Cc4cc(O)cc(c4)-c4ccc5c(c4)c(c(-c4cccnc4[C@H](C)OC)n5CC)CC(C)(C)COC(=O)[C@@H]4CCCN(N4)C3=O)C(C)C)C2=O)C1 (atropisomer, axis not shown) [Example A297] | 10 to 100 nM | 100 to 1000 nM | 0.01 to 0.1 µM | 10 to 100 nM | 1000 to 10000 nM | < 10 nM |  |  | 
7 | C=CC(=O)N1CCO[C@H]2CN(C(=O)N(C)[C@H](C(=O)N[C@H]3Cc4nc(cs4)-c4ccc5c(c4)c(c(-c4cccnc4[C@H](C)OC)n5CC)CC(C)(C)COC(=O)[C@@H]4CCCN(N4)C3=O)C(C)C)C[C@H]21 (atropisomer, axis not shown) [Example A706] | 10 to 100 nM | 100 to 1000 nM | < 0.01 µM | 1000 to 10000 nM | > 10000 nM | 100 to 1000 nM |  |  | 
8 | C=CC(=O)N1CCO[C@H]2CN(C(=O)N(C)[C@H](C(=O)N[C@H]3Cc4cc(C(F)F)cc(n4)-c4ccc5c(c4)c(c(-c4cccnc4[C@H](C)OC)n5CC(F)(F)F)CC(C)(C)COC(=O)[C@@H]4CCCN(N4)C3=O)C(C)C)C[C@H]21 (atropisomer, axis not shown) [Example A540] |  | 1000 to 10000 nM |  | 1000 to 10000 nM |  | 100 to 1000 nM | 100 to 1000 nM | < 0.01 µM | > 10000 nM
9 | C=CC(=O)N1CC[C@H](C(=O)N(C)[C@H](C(=O)N[C@H]2Cc3cc(CF)cc(c3)-c3ccc4c(c3)c(c(-c3cccnc3[C@H](C)OC)n4CC)CC(C)(C)COC(=O)[C@@H]3CCCN(N3)C2=O)C(C)C)C1 (atropisomer, axis not shown) [Example A503] | 10 to 100 nM | 1000 to 10000 nM | < 0.01 µM | 1000 to 10000 nM | 1000 to 10000 nM | 100 to 1000 nM |  |  | 
10 | C=CC(=O)N1C[C@@H](C)N(C(=O)N(C)[C@H](C(=O)N[C@H]2Cc3nc(cs3)-c3ccc4c(c3)c(c(-c3cccnc3[C@H](C)OC)n4CC)CC(C)(C)COC(=O)[C@@H]3CCCN(N3)C2=O)C(C)C)[C@H](C)C1 (atropisomer, axis not shown) [Example A388] | < 10 nM | < 10 nM | < 0.01 µM | < 10 nM | 10 to 100 nM | < 10 nM |  |  | 
11 | C=CC(=O)N1CC[C@H](C(=O)N(C)[C@H](C(=O)N[C@H]2Cc3nc(cs3)-c3ccc4c(c3)c(c(-c3cccnc3[C@H](C)OC)n4CC(F)(F)F)CC(C)(C)COC(=O)[C@@H]3CCCN(N3)C2=O)C(C)C)C1 (atropisomer, axis not shown) [Example A502] | 100 to 1000 nM | 100 to 1000 nM | < 0.01 µM | 100 to 1000 nM | 1000 to 10000 nM | 100 to 1000 nM |  |  | 
12 | CCn1c(-c2cccnc2[C@H](C)OC)c2c3cc(ccc31)-c1cnc(o1)C[C@H](NC(=O)[C@H](C(C)C)N(C)C(=O)[C@H]1CCN(C(=O)C#CC(C)(C)N(C)C)C1)C(=O)N1CCC[C@H](N1)C(=O)OCC(C)(C)C2 (atropisomer, axis not shown) [Example A692, (3S)-1-(4-(dimethylamino)-4-methylpent-2-ynoyl)-N-((2S)-1-(((6^3S,4S)-1^1-ethyl-1^2-(2-((S)-1-methoxyethyl)pyridin-3-yl)-10,10-dimethyl-5,7-dioxo-6^1,6^2,6^3,6^4,6^5,6^6-hexahydro-1^1H-8-oxa-2(5,2)-oxazola-1(5,3)-indola-6(1,3)-pyridazinacycloundecaphane-4-yl)amino)-3-methyl-1-oxobutan-2-yl)-N-methylpyrrolidine-3-carboxamide] | < 10 nM | > 10000 nM | < 0.01 µM | > 10000 nM | > 10000 nM | 1000 to 10000 nM |  |  | 
13 | C=CC(=O)N1CC[C@H](C(=O)N(C)[C@H](C(=O)N[C@H]2Cc3cc(O)cc(c3)-c3ccc4c(c3)c(c(-c3cncc5c3[C@@H](OC)CC5)n4CC)CC(C)(C)COC(=O)[C@@H]3CCCN(N3)C2=O)C(C)C)C1 [Example A275] | 10 to 100 nM | 100 to 1000 nM | < 0.01 µM | 10 to 100 nM | 100 to 1000 nM | 10 to 100 nM |  |  | 
14 | C=CC(=O)N1CC[C@H](C(=O)N(C)[C@H](C(=O)N[C@H]2Cc3cccc(c3)-c3ccc4c(c3)c(c(-c3cc(CN(C)C)cnc3[C@H](C)OC)n4CC)CC(C)(C)COC(=O)[C@@H]3CCCN(N3)C2=O)C(C)C)C1 (atropisomer, axis not shown) [Example A522] | 100 to 1000 nM | 1000 to 10000 nM | < 0.01 µM | 1000 to 10000 nM | > 10000 nM | 100 to 1000 nM |  |  | 
15 | CCn1c(-c2cccnc2[C@H](C)OC)c2c3cc(ccc31)-c1cccc(c1)C[C@H](NC(=O)[C@H](C(C)C)N1CO[C@@]3(CCN(C(=O)C#CC(C)(C)N4CCC4)C3)C1=O)C(=O)N1CCC[C@H](N1)C(=O)OCC(C)(C)C2 (atropisomer, axis not shown) [Example A733] | 10 to 100 nM | > 10000 nM | < 0.01 µM | > 10000 nM | > 10000 nM | 1000 to 10000 nM |  |  | 
16 | C=CC(=O)N1CCN(C(=O)N(C)[C@H](C(=O)N[C@H]2Cc3nc(cs3)-c3ccc4c(c3)c(c(-c3cccnc3[C@H](C)OC)n4CC(F)(F)F)CC(C)(C)COC(=O)[C@@H]3CCCN(N3)C2=O)C(C)C)CC12CC2 (atropisomer, axis not shown) [Example A679] | 10 to 100 nM | 10 to 100 nM | 0.01 to 0.1 µM | 10 to 100 nM | 100 to 1000 nM | 10 to 100 nM |  |  | 
17 | CCn1c(-c2cccnc2[C@H](C)OC)c2c3cc(ccc31)-c1csc(n1)C[C@H](NC(=O)[C@H](C(C)C)N(C)C(=O)N1CCN(C(=O)/C=C/CN3CCOCC3)C3(CC3)C1)C(=O)N1CCC[C@H](N1)C(=O)OCC(C)(C)C2 (atropisomer, axis not shown) [Example A665] | 10 to 100 nM | 10 to 100 nM | < 0.01 µM | 10 to 100 nM | 100 to 1000 nM | 10 to 100 nM |  |  | 
18 | C=CC(=O)N1CCO[C@@]2(CCN(C(=O)N(C)[C@H](C(=O)N[C@H]3Cc4nc(cs4)-c4ccc5c(c4)c(c(-c4cccnc4[C@H](C)OC)n5CC(F)(F)F)CC(C)(C)COC(=O)[C@@H]4CCCN(N4)C3=O)C(C)C)C2)C1 (atropisomer, axis not shown) [Example A594] | 10 to 100 nM | 10 to 100 nM | < 0.01 µM | 10 to 100 nM | 100 to 1000 nM | 10 to 100 nM |  |  | 
